The experiment has as its system Enterobacter cloacae 3MRGN (clinical bronchial aspirate isolate). Kind of experiment: MIC 50, broth micro-dilution, clinical isolate. The format is cell-based. The note with it: E. Cloacae clinical isolate. The source says: 3.2 Against Selected Bacteria of the ESKAPE Panel and Enterococcus faecalis (DSM Strains)
Tested reference compounds. Amikacin sulfate (Cat. No. 01693, Chem-Impex), Gentamicin sulfate (Cat. No. G4918, Sigma Aldrich).
Microbial strains. Enterococcus faecalis DSM 2570, Klebsiella pneumoniae DSM 26371, Acinetobacter baumannii DSM 105126, Enterobacter cloacae 3MRGN (clinical bronchial aspirate isolate).
Culture media and equipment. BBL™ Mueller Hinton Broth 2 (Lot. BCBW1143, Cat. No. 70192, Sigma); Trypcase Soy Blood-agar plates (Cat. No. 43001, Biomérieux); Cryoinstant (contains 15% glycerol; Cat. No. 822070ZA, VWR International); GasPak™ EZ Standard Incubation Container (Cat. No. 260671, Becton Dickinson); GasPak™ EZ Campy Container System Sachets (Cat. No. 260680, Becton Dickinson); 96-well deep well plate, 1 mL (Cat. No. 0030506.200, Eppendorf); Plate lid (Cat. No. 0030131.525, Eppendorf); 96-well plate, F-bottom (Cat. No. 260860, Nunc); Incubator (Sartorius Certomat BS-1); Laminar flow (Heraeus HS12); UV/VIS meter (Perkin Elmer Lambda Bio+); Platereader (Tecan Infinite M200 Pro).
Compound preparation. Compounds were prepared in MH2 media at a concentration of 5 mM and stored at 4° C. For testing, solutions of 128 μM were prepared in MH2, for tests against E. faecalis a solution of 512 μM was prepared. Out of these working solutions, 400 μL was transferred to wells in the first column of 96-well deep well plates. Each compound was transferred in triplicate. Plates were previously filled with 200 μL of MH2 media in all wells except for the wells in the first column. After compound and antibiotic addition, the compounds were serial two-fold diluted by transferring 200 μL from the first to the second column, then from the second to the third column and so on. Finally, 200 μL was removed from the last column.
Inoculum preparation. Microorganisms used were all revived from 15% glycerol storage in Croinstant tubes at −28° C. by plating them on blood agar plates. A. baumanni, and E. cloacae were grown aerobically at 37° C., E. faecalis was grown microaerophilically at 37° C., and K. pneumoniae was grown aerobically at 37° C. Plates were stored at 4° C. for up to two weeks, after which new plates were prepared from −28° C. A single colony was inoculated in MH2 media and grown at 37° C. and 200 rpm to an optical density (measured by UV/Vis spectroscopy) of 0.6-0.8 at 600 nm. Out of these suspensions, actual inoculums were prepared by diluting them to an optical density of 0.1 in MH2 media. From these inoculums, 200 μL was transferred to each well, resulting in a final compound concentration range of 64 μM-31.3 nM for, K. pneumoniae, A. baumanni, and E. cloacae, and 256 μM-125 nM for E. faecalis. Plates inoculated with E. faecalis were placed inside a GasPak™ Container System with GasPak™ Campy Container System sachets. All plates were incubated at 200 rpm for 18 h under the microorganism culturing conditions mentioned above.
MIC determination. After 18 h of growth, 200 μL was transferred to a 96-well F-bottom plate. The optical density was determined by a plate reader at 600 nm, with 10 s shaking before reading. Triplicate measurements were averaged, and a growth curve was plotted in Excel. The first column in which the growth reached half the value of maximum growth was determined as the MIC50 value for that particular compound.
MIC50. The MIC50 of a compound was assigned at which the bacterial growth reached half the value of maximum growth.
On the technique in general: Broth dilution looks for growth in wells or tubes with falling amounts of substance.

Setting [1] is: Enterobacter cloacae, read-out: MIC 50.

In brackets after ≈: the same amount, converted by molar mass. Read-outs that look alike come from different tables or passages of the source.

As for `N=C(NC[C@H]1CCNC1)NC1[C@@H](O)C(OC2[C@@H](F)[C@H](O[C@H]3OC(CN)[C@@H](O)CC3N)C(N)C[C@H]2NC(=O)[C@@H](O)CCN)O[C@H](CO)[C@H]1O` (stereo partly drawn) [ABX5042, Tobra-AHB-F-Gua (S) pyrrolidine-3-ylmethyl], the MIC50 under setting [1] came out at 0.25 µM (≈ 0.174 µg/mL).
For the compound `N=C(N)NC1[C@@H](O)C(OC2[C@@H](F)[C@H](O[C@H]3OC(CN)[C@@H](O)[C@H](O)C3N)C(N)C[C@H]2NC(=O)[C@@H](O)CCN)O[C@H](CO)[C@H]1O` (stereo partly shown) [ABX4006, KanaB-AHB-F-Gua], the “MIC50” value lay within 0.25 to 0.5 µM.
As for `N=C(N)NC1[C@@H](O)C(OC2[C@@H](F)[C@H](O[C@H]3OC(CN)[C@@H](O)[C@H](O)C3O)C(N)C[C@H]2NC(=O)[C@@H](O)CCN)O[C@H](CO)[C@H]1O` (stereo partly drawn) [ABX3003, 3′epi-KanaA-AHB-F-Gua], the MIC50 under setting [1] was 1 to 2 µM (≈ 0.63 to 1.26 µg/mL).
Same read-out and setting: under `NCC[C@H](O)C(=O)N[C@@H]1C[C@H](N)[C@@H](O[C@H]2O[C@H](CN)[C@@H](O)[C@H](O)[C@H]2O)[C@H](O)[C@H]1O[C@H]1O[C@H](CO)[C@@H](O)[C@H](N)[C@H]1O` [Amikacin, amikacin, reference compound] stands 2 µM (≈ 1.17 µg/mL).
As to `N=C(N)NC1[C@@H](O)C(OC2[C@@H](O)[C@H](O[C@H]3OC(CN)[C@@H](O)[C@H](O)C3N)C(N)C[C@H]2NC(=O)[C@@H](O)CCN)O[C@H](CO)[C@H]1O` (stereo partly shown) [ABX4009, KanaB-AHB-Gua], the “MIC50” value amounted to 2 µM (≈ 1.25 µg/mL).
Consider `N=C(N)NC1[C@@H](O)C(OC2[C@@H](F)[C@H](O[C@H]3OC(CNCCO)[C@@H](O)CC3N)C(N)C[C@H]2NC(=O)[C@@H](O)CCN)O[C@H](CO)[C@H]1O` (stereo partly shown) [ABX5045, 6N-2-hydroxy-ethyl-Tobra-AHB-F-Gua], for which, under setting [1], the MIC50 came to 1 µM (≈ 0.657 µg/mL).
Consider `NCC[C@H](O)C(=O)N[C@@H]1CC(N)[C@@H](O[C@H]2OC(CN)[C@@H](O)[C@@H](O)C2N)[C@H](O)C1OC1O[C@H](CO)[C@@H](O)C(N)[C@H]1O` (stereo partly drawn) [ABX4002, 3′Epi-KanaB-AHB], for which the “MIC50” value worked out at 4 µM (≈ 2.34 µg/mL).
